From US10494380B2, “Nitrogen-containing tricyclic derivatives having HIV replication inhibitory activity” (priority 2015, dated 2019)
Like-named read-outs stand apart in the source and are kept apart here.

System: T125A mutant virus (HIV-1 NL-432 recombinant molecular clone, IN gene)
Assay: HIV replication inhibition assay against integrase 124/125 mutant virus (Test Example 2)
Type: cell-based
Procedure: Persistently HIV (HTLV-IIIB strain) infected human T cell strain Molt-4 clone8 was cultured in RPMI-1640 medium supplemented with 10% fetal bovine serum and the supernatant was filtered, then the virus titer was measured and stored at −80° C. Polymorphic mutations in HIV-1-infected patients have been observed in amino acids 124 and 125 on the HIV-1 integrase (IN) gene. A point mutation was introduced on the amino acids 124 and/or 125 of IN gene of the HIV-1 NL-432 recombinant molecular clone to generate a mutant virus plasmid construct. These mutant virus plasmids were transfected into 293T cells, and after two days, the supernatant was filtered and then the virus titer was measured and stored at −80° C. Each anti-HIV active substance was diluted with culture medium described above to the designated concentration, which was dispensed into 96-well microtiter plate by 50 μL. Next, 100 μL of MT-4 cell suspension (2.5×10^4 cells) was dispensed into each well, then 50 μl of HIV-containing supernatant diluted with culture medium described above was added thereto (60 pfu (plaque forming unit)).
Cells were cultured at 37° C. in CO2 incubator for four days, then 30 μL of MTT (3-(4,5-dimethylthiazole-2-yl)-2,5-diphenyltetrazolyum bromide) reagent (5 mg/mL in PBS) was added to all wells followed by incubation for 1 hour. In this step, MTT was reduced to insoluble formazan in living cells. To elute generated formazan, 150 μL of the culture supernatant was removed from all wells, then 150 μL of cell lysis solution (10% Triton X-100 and 0.4% (v/v)-HCl containing isopropanol) was added thereto, followed by shaking with a plate mixer. The formazan was measured with micro plate reader at OD: 560 nm and 690 nm (reference wavelength) and the result was compared with the reference wells. EC50 means the compound concentration at which 50% of cytotoxicity caused by virus infection is inhibited.

[1] = Human immunodeficiency virus 1, MT4, read-out: EC50 against T125A mutant virus, T125A mutant virus (HIV-1 NL-432 IN gene), MT-4 cells, MTT
[2] = read-out: EC50 against T125A mutant virus, T125A mutant virus (HIV-1 NL-432 IN gene), MT-4 cells, MTT

Structure (SMILES)	EC50 [1] [nM]	other results
Cc1csc(N2CCn3c(C)cc4c(-c5ccc(Cl)cc5)c([C@H](OC(C)(C)C)C(=O)O)c(C)c2c43)n1 [Compound I-147]	16	
[2H]C([2H])([2H])N1c2c(C)c([C@H](OC(C)(C)C)C(=O)O)c(-c3ccc(F)cc3)c3cc(C)n(c23)C([2H])([2H])C1([2H])[2H] [Compound I-106]	11	
COC[C@@H]1Cn2c(C)cc3c(-c4ccc(Cl)cc4)c([C@H](OC(C)(C)C)C(=O)O)c(C)c(c32)N1S(C)(=O)=O [Compound I-087]	20	
Cc1c([C@H](OC(C)(C)C)C(=O)O)c(-c2ccc(Cl)cc2)c2cc(C)n3c2c1N1C(=O)OCC[C@H]1C3 [Compound I-129]	89	
Cc1c([C@H](OC(C)(C)C)C(=O)O)c(-c2ccc(Cl)cc2)c2cc(C)n3c2c1N(S(C)(=O)=O)[C@@H](CCN1CCOCC1)C3 [Compound I-045]	58	
CCNC(=O)N1CCn2c(C)cc3c(-c4ccc(Cl)cc4)c([C@H](OC(C)(C)C)C(=O)O)c(C)c1c32 [Compound I-038]	45	
Cc1c([C@H](OC(C)(C)C)C(=O)O)c(-c2ccc(Cl)cc2)c2cc(C)n3c2c1N(CCN(C)C)CC3 [Compound I-075]	24	
COCCc1cnc(N2CCn3c(C)cc4c(-c5ccc(C)cc5)c([C@H](OC(C)(C)C)C(=O)O)c(C)c2c43)nc1 [Compound I-336]	2.7	
Cc1c([C@H](OC(C)(C)C)C(=O)O)c(-c2ccc(C(F)F)cc2)c2cc(C)n3c2c1N(C)CC3 [Compound I-049]	22	
Cc1c([C@H](OC(C)(C)C)C(=O)O)c(-c2ccc(Cl)cc2)c2cc(C)n3c2c1NC(=O)C3C (some centres unmarked) [Compound I-054]	48	
Cc1ccc(-c2c([C@H](OC(C)(C)C)C(=O)O)c(C)c3c4c2cc(C)n4CCN3c2ncc(Oc3ccccn3)cn2)cc1 [Compound I-339]	11	
Cc1c([C@H](OC(C)(C)C)C(=O)O)c(-c2ccc(Cl)cc2)c2cc(C)n3c2c1N(S(C)(=O)=O)CC3C (some centres unmarked) [Compound I-062]		EC50 [2]: 34 nM
Cc1c([C@H](OC(C)(C)C)C(=O)O)c(-c2ccc(Cl)cc2)c2cc(C)n3c2c1N(S(=O)(=O)CCN(C)C)CC3 [Compound I-030]	23	
[2H]C1([2H])N(C(=O)OC)c2c(C)c([C@H](OC(C)(C)C)C(=O)O)c(-c3ccc(Cl)cc3)c3cc(C)n(c23)C1([2H])[2H] [Compound I-097]	9.7	
[2H]C1([2H])N(S(C)(=O)=O)c2c(C)c([C@H](OC(C)(C)C)C(=O)O)c(-c3ccc(Cl)cc3)c3c(F)c(C)n(c23)C1([2H])[2H] [Compound I-040]	11	
COC(=O)N1CC(C)n2c(C)cc3c(-c4ccc(Cl)cc4)c([C@H](OC(C)(C)C)C(=O)O)c(C)c1c32 (some centres unmarked) [Compound I-120]		EC50 [2]: 52 nM
Cc1c([C@H](OC(C)(C)C)C(=O)O)c(-c2ccc(F)cc2)c2cc(C)n3c2c1N(C)[C@@H](C)C3 [Compound I-093]	16	
COC(=O)N1CCn2c(C)cc3c(-c4ccc(Cl)cc4)c([C@H](OC(C)(C)C)C(=O)O)c(C)c1c32 [Compound I-031]	11	
Cc1c([C@H](OC(C)(C)C)C(=O)O)c(-c2ccc(Cl)cc2)c2c(Cl)c(C)n3c2c1N(C)CC3 [Compound I-037]	30	
COC(=O)N1CC(C)n2c(C)cc3c(-c4ccc(Cl)cc4)c([C@H](OC(C)(C)C)C(=O)O)c(C)c1c32 (some centres unmarked) [Compound I-119]		EC50 [2]: 2.8 nM
COCCN1CCn2c(C)cc3c(-c4ccc(Cl)cc4)c([C@H](OC(C)(C)C)C(=O)O)c(C)c1c32 [Compound I-076]	16	
COc1cnc(N2CCn3c(C)c(Cl)c4c(-c5ccc(C)cc5)c([C@H](OC(C)(C)C)C(=O)O)c(C)c2c43)nc1 [Compound I-323]	16	
Cc1c([C@H](OC(C)(C)C)C(=O)O)c(-c2ccc(Cl)cc2)c2cc(C)n3c2c1N(Cc1cncnc1)CC3 [Compound I-153]	11	
[2H]C1([2H])N(C)c2c(C)c([C@H](OC(C)(C)C)C(=O)O)c(-c3ccc(F)cc3)c3cc(C)n(c23)C1([2H])[2H] [Compound I-105]	11	
Cc1ccc(-c2c([C@H](OC(C)(C)C)C(=O)O)c(C)c3c4c2cc(C)n4CCN3c2ncc(OCCNS(C)(=O)=O)cn2)cc1 [Compound I-222]		EC50 (T125A mutant virus (HIV-1 NL-432 IN gene), MT-4 cells, MTT, read-out: EC50 against T125A mutant virus): 89 nM
Cc1c([C@H](OC(C)(C)C)C(=O)O)c(-c2ccc(Cl)cc2)c2cc(C)n3c2c1N(C)CC3C (some centres unmarked) [Compound I-090]		EC50 [2]: 39 nM
Cc1c([C@H](OC(C)(C)C)C(=O)O)c(-c2ccc(Cl)cc2)c2cc(C)n3c2c1N(C)S(=O)(=O)C3 [Compound I-072]	13	

Structure (SMILES)	EC50 [1] [nM]	other results
Cc1c([C@H](OC(C)(C)C)C(=O)O)c(-c2ccc(Cl)cc2)c2cc(C)n3c2c1N(Cc1cccnc1)CC3 [Compound I-136]	8.4	
Cc1c([C@H](OC(C)(C)C)C(=O)O)c(-c2ccc(Cl)cc2)c2cc(C)n3c2c1N(CC(F)F)CC3 [Compound I-035]	14	
Cc1c([C@H](OC(C)(C)C)C(=O)O)c(-c2ccc(Cl)cc2)c2cc(C)n3c2c1N(C)[C@H](C)C3 [Compound I-057]	2.7	
Cc1coc(N2CCn3c(C)cc4c(-c5ccc(Cl)cc5)c([C@H](OC(C)(C)C)C(=O)O)c(C)c2c43)n1 [Compound I-150]	15	
Cc1c([C@H](OC(C)(C)C)C(=O)O)c(-c2ccc(Cl)cc2)c2cc(C)n3c2c1N(C)CC3(C)C [Compound I-127]	16	
COC[C@H]1Cn2c(C)cc3c(-c4ccc(Cl)cc4)c([C@H](OC(C)(C)C)C(=O)O)c(C)c(c32)N1S(C)(=O)=O [Compound I-086]	11	
Cc1ccc(-c2c([C@H](OC(C)(C)C)C(=O)O)c(C)c3c4c2cc(C)n4CCN3c2ncc(Oc3cnccn3)cn2)cc1 [Compound I-341]	4.1	
Cc1c([C@H](OC(C)(C)C)C(=O)O)c(-c2ccc(Cl)cc2)c2cc(C)n3c2c1N(Cc1ccccc1)CC3 [Compound I-107]	25	
Cc1ccc(-c2c([C@H](OC(C)(C)C)C(=O)O)c(C)c3c4c2cc(C)n4CCN3c2ncc(Oc3cccnn3)cn2)cc1 [Compound I-342]	13	
Cc1ccc(-c2c([C@H](OC(C)(C)C)C(=O)O)c(C)c3c4c2cc(Cl)n4CCN3C)cc1 [Compound I-068]	6.8	
Cc1c([C@H](OC(C)(C)C)C(=O)O)c(-c2ccc(F)cc2)c2cc(C)n3c2c1N(C)CC3C (some centres unmarked) [Compound I-134]		EC50 [2]: 8.4 nM
COC(=O)N1c2c(C)c([C@H](OC(C)(C)C)C(=O)O)c(-c3ccc(Cl)cc3)c3cc(C)n(c23)C[C@@H]1C [Compound I-065]	12	
[2H]C([2H])([2H])N1CCn2c(C)cc3c(-c4ccc(Cl)cc4)c([C@H](OC(C)(C)C)C(=O)O)c(C)c1c32 [Compound I-104]	4.1	
Cc1c([C@H](OC(C)(C)C)C(=O)O)c(-c2ccc(Cl)cc2)c2cc(C)n3c2c1N1C(=O)OC[C@@H]1C3 [Compound I-146]	16	
Cc1c([C@H](OC(C)(C)C)C(=O)O)c(-c2ccc(Cl)cc2)c2cc(C)n3c2c1N(C)CC3C (some centres unmarked) [Compound I-091]		EC50 [2]: 2 nM
Cc1c([C@H](OC(C)(C)C)C(=O)O)c(-c2ccc(F)cc2)c2cc(C)n3c2c1N(S(C)(=O)=O)CC3 [Compound I-096]	19	
COC(=O)N1CCn2c(C)cc3c(-c4ccc(F)cc4)c([C@H](OC(C)(C)C)C(=O)O)c(C)c1c32 [Compound I-132]	28	
CCC(=O)N1c2c(C)c([C@H](OC(C)(C)C)C(=O)O)c(-c3ccc(Cl)cc3)c3cc(C)n(c23)C[C@@H]1C [Compound I-069]	16	
COc1cnc(N2CCn3c(C)c(Cl)c4c(-c5ccc(C)cc5)c([C@H](OC(C)(C)CO)C(=O)O)c(C)c2c43)nc1 [Compound I-324]	63	
Cc1c([C@H](OC(C)(C)C)C(=O)O)c(-c2ccc(Cl)cc2)c2cc(C)n3c2c1N(S(C)(=O)=O)[C@H](C)C3 [Compound I-060]	14	
Cc1c([C@H](OC(C)(C)C)C(=O)O)c(-c2ccc(Cl)cc2)c2cc(C)n3c2c1N(C)[C@@H](C)C3 [Compound I-053]	5.6	
Cc1ccc(-c2c([C@H](OC(C)(C)C)C(=O)O)c(C)c3c4c2cc(C)n4C(C)CN3CCN(C)C)cc1 (mixture of isomers) [Compound I-144]	37	
Cc1c([C@H](OC(C)(C)C)C(=O)O)c(-c2ccc(Cl)cc2)c2cc(C)n3c2c1N(CC1CC1)[C@@H](C)C3 [Compound I-083]	15	
Cc1c([C@H](OC(C)(C)C)C(=O)O)c(-c2ccc(Cl)cc2)c2cc(C)n3c2c1N(c1ccccn1)CC3 [Compound I-125]	8.2	
C=CCN1CCn2c(C)cc3c(-c4ccc(C)cc4)c([C@H](OC(C)(C)C)C(=O)O)c(C)c1c32 [Compound I-294]	16	
Cc1ccc(-c2c([C@H](OC(C)(C)C)C(=O)O)c(C)c3c4c2cc(C)n4CCN3c2ncc(Cl)cn2)cc1 [Compound I-263]	7.2	
